# Laboratory results reported in PubChem BioAssay AID1259407 (Chemical Carcinogenesis Research Information System (CCRIS), 2018).
# Activity calls are given as the source filed them. The rule behind the calls is not given here.
# Tested on: CCRIS mutagenicity, Ames/micronucleus/aberration tests
# Experiment: CCRIS mutagenicity studies
# [1] = Test System: AMES SALMONELLA TYPHIMURIUM, Strain/Indicator: TA98, Metabolic Activation: NONE, Method: STANDARD PLATE
# [2] = Test System: AMES SALMONELLA TYPHIMURIUM, Strain/Indicator: TA100, Metabolic Activation: NONE, Method: STANDARD PLATE
# [3] = Test System: AMES SALMONELLA TYPHIMURIUM, Strain/Indicator: TA1537, Metabolic Activation: NONE, Method: STANDARD PLATE
# [4] = Test System: AMES SALMONELLA TYPHIMURIUM, Strain/Indicator: TA1538, Metabolic Activation: NONE, Method: STANDARD PLATE
structure (smiles),measurement,setting,value
CCNc1nc(Cl)nc(NCC)n1,mutagenic call,"Test System: AMES SALMONELLA TYPHIMURIUM, Strain/Indicator: TA97, Metabolic Activation: NONE, Method: STANDARD PLATE",inactive; negative
same,mutagenic call,"Test System: AMES SALMONELLA TYPHIMURIUM, Strain/Indicator: TA97, Metabolic Activation: RAT, LIVER, S-9, AROCLOR 1254, Method: STANDARD PLATE",inactive; negative
same,mutagenic call,[1],inactive; negative
same,mutagenic call,"Test System: AMES SALMONELLA TYPHIMURIUM, Strain/Indicator: TA98, Metabolic Activation: RAT, LIVER, S-9, AROCLOR 1254, Method: STANDARD PLATE",inactive; negative
same,mutagenic call,[2],inactive; negative
same,mutagenic call,"Test System: AMES SALMONELLA TYPHIMURIUM, Strain/Indicator: TA100, Metabolic Activation: RAT, LIVER, S-9, AROCLOR 1254, Method: STANDARD PLATE",inactive; negative
same,mutagenic call,"Test System: AMES SALMONELLA TYPHIMURIUM, Strain/Indicator: TA102, Metabolic Activation: NONE, Method: STANDARD PLATE",inactive; negative
same,mutagenic call,"Test System: AMES SALMONELLA TYPHIMURIUM, Strain/Indicator: TA102, Metabolic Activation: RAT, LIVER, S-9, AROCLOR 1254, Method: STANDARD PLATE",inactive; negative
Cc1ccc(N=Nc2c(O)c(C(=O)O)cc3ccccc23)cc1S(=O)(=O)O,mutagenic call,[1],inactive; negative
same,mutagenic call,"Test System: AMES SALMONELLA TYPHIMURIUM, Strain/Indicator: TA98, Metabolic Activation: RAT, LIVER, S-9, Method: STANDARD PLATE",inactive; negative
same,mutagenic call,[2],inactive; negative
same,mutagenic call,"Test System: AMES SALMONELLA TYPHIMURIUM, Strain/Indicator: TA100, Metabolic Activation: RAT, LIVER, S-9, Method: STANDARD PLATE",inactive; negative
N#CC1CO1 (stereo not drawn),mutagenic call,"Test System: UDS HUMAN MAMMARY EPITHELIAL CELLS, Strain/Indicator: THY INCORP, Metabolic Activation: NONE, Method: AUTORADIOGRAPHY",active; positive
same,mutagenic call,"Test System: UDS PRIMARY RAT HEPATOCYTES, Strain/Indicator: THY INCORP, Metabolic Activation: NONE, Method: AUTORADIOGRAPHY",inactive; negative
C[Si](C)(C)Cl,mutagenic call,"Test System: AMES SALMONELLA TYPHIMURIUM, Strain/Indicator: TA98, Metabolic Activation: HAMSTER, LIVER, S-9, AROCLOR 1254, Method: PREINCUBATION",inactive; negative
same,mutagenic call,"Test System: AMES SALMONELLA TYPHIMURIUM, Strain/Indicator: TA98, Metabolic Activation: NONE, Method: PREINCUBATION",inactive; negative
same,mutagenic call,[1],inactive; negative
same,mutagenic call,"Test System: AMES SALMONELLA TYPHIMURIUM, Strain/Indicator: TA98, Metabolic Activation: RAT LIVER S-9, AROCLOR 1254, Method: STANDARD PLATE",inactive; negative
same,mutagenic call,"Test System: AMES SALMONELLA TYPHIMURIUM, Strain/Indicator: TA98, Metabolic Activation: RAT, LIVER, S-9, AROCLOR 1254, Method: PREINCUBATION",inactive; negative
same,mutagenic call,"Test System: AMES SALMONELLA TYPHIMURIUM, Strain/Indicator: TA100, Metabolic Activation: HAMSTER, LIVER, S-9, AROCLOR 1254, Method: PREINCUBATION",inactive; negative
same,mutagenic call,"Test System: AMES SALMONELLA TYPHIMURIUM, Strain/Indicator: TA100, Metabolic Activation: NONE, Method: PREINCUBATION",inactive; negative
same,mutagenic call,[2],inactive; negative
same,mutagenic call,"Test System: AMES SALMONELLA TYPHIMURIUM, Strain/Indicator: TA100, Metabolic Activation: RAT LIVER S-9, AROCLOR 1254, Method: STANDARD PLATE",inactive; negative
same,mutagenic call,"Test System: AMES SALMONELLA TYPHIMURIUM, Strain/Indicator: TA100, Metabolic Activation: RAT, LIVER, S-9, AROCLOR 1254, Method: PREINCUBATION",inactive; negative
same,mutagenic call,"Test System: AMES SALMONELLA TYPHIMURIUM, Strain/Indicator: TA1535, Metabolic Activation: HAMSTER, LIVER, S-9, AROCLOR 1254, Method: PREINCUBATION",inactive; negative
same,mutagenic call,"Test System: AMES SALMONELLA TYPHIMURIUM, Strain/Indicator: TA1535, Metabolic Activation: NONE, Method: PREINCUBATION",inactive; negative
same,mutagenic call,"Test System: AMES SALMONELLA TYPHIMURIUM, Strain/Indicator: TA1535, Metabolic Activation: NONE, Method: STANDARD PLATE",inactive; negative
same,mutagenic call,"Test System: AMES SALMONELLA TYPHIMURIUM, Strain/Indicator: TA1535, Metabolic Activation: RAT LIVER S-9, AROCLOR 1254, Method: STANDARD PLATE",inactive; negative
same,mutagenic call,"Test System: AMES SALMONELLA TYPHIMURIUM, Strain/Indicator: TA1535, Metabolic Activation: RAT, LIVER, S-9, AROCLOR 1254, Method: PREINCUBATION",inactive; negative
same,mutagenic call,"Test System: AMES SALMONELLA TYPHIMURIUM, Strain/Indicator: TA1537, Metabolic Activation: HAMSTER, LIVER, S-9, AROCLOR 1254, Method: PREINCUBATION",inactive; negative
same,mutagenic call,"Test System: AMES SALMONELLA TYPHIMURIUM, Strain/Indicator: TA1537, Metabolic Activation: NONE, Method: PREINCUBATION",inactive; negative
same,mutagenic call,[3],inactive; negative
same,mutagenic call,"Test System: AMES SALMONELLA TYPHIMURIUM, Strain/Indicator: TA1537, Metabolic Activation: RAT LIVER S-9, AROCLOR 1254, Method: STANDARD PLATE",inactive; negative
same,mutagenic call,"Test System: AMES SALMONELLA TYPHIMURIUM, Strain/Indicator: TA1537, Metabolic Activation: RAT, LIVER, S-9, AROCLOR 1254, Method: PREINCUBATION",inactive; negative
same,mutagenic call,"Test System: AMES SALMONELLA TYPHIMURIUM, Strain/Indicator: TA1538, Metabolic Activation: HAMSTER, LIVER, S-9, AROCLOR 1254, Method: PREINCUBATION",inactive; negative
same,mutagenic call,"Test System: AMES SALMONELLA TYPHIMURIUM, Strain/Indicator: TA1538, Metabolic Activation: NONE, Method: PREINCUBATION",inactive; negative
same,mutagenic call,[4],inactive; negative
same,mutagenic call,"Test System: AMES SALMONELLA TYPHIMURIUM, Strain/Indicator: TA1538, Metabolic Activation: RAT LIVER S-9, AROCLOR 1254, Method: STANDARD PLATE",inactive; negative
same,mutagenic call,"Test System: AMES SALMONELLA TYPHIMURIUM, Strain/Indicator: TA1538, Metabolic Activation: RAT, LIVER, S-9, AROCLOR 1254, Method: PREINCUBATION",inactive; negative
same,mutagenic call,"Test System: E. COLI, Strain/Indicator: P3078 POLA, Metabolic Activation: NONE, Method: SPOT TEST",inactive; negative
same,mutagenic call,"Test System: E. COLI, Strain/Indicator: P3078 POLA, Metabolic Activation: RAT LIVER S-9, AROCLOR 1254, Method: SPOT TEST",inactive; negative
same,mutagenic call,"Test System: E. COLI, Strain/Indicator: W3110, Metabolic Activation: NONE, Method: SPOT TEST",inactive; negative
same,mutagenic call,"Test System: E. COLI, Strain/Indicator: W3110, Metabolic Activation: RAT LIVER S-9, AROCLOR 1254, Method: SPOT TEST",inactive; negative
same,mutagenic call,"Test System: MOUSE LYMPHOMA, Strain/Indicator: L5178Y (TK+/TK-), Metabolic Activation: RAT, LIVER, S-9, AROCLOR 1254, Method: SUSPENSION/PLATE",inactive; negative. reevaluation of results: negative
same,mutagenic call,"Test System: MOUSE LYMPHOMA, Strain/Indicator: L5178Y (TK+/TK-), Metabolic Activation: RAT, LIVER, S-9, Method: SUSPENSION/PLATE",inactive; negative
Cc1c2ccncc2c(C)c2c1[nH]c1ccc(N)cc12,mutagenic call,[1],active; positive
same,mutagenic call,"Test System: AMES SALMONELLA TYPHIMURIUM, Strain/Indicator: TA98, Metabolic Activation: RAT, LIVER, S-9, PHENOBARBITAL, Method: STANDARD PLATE",active; positive
same,mutagenic call,[2],inactive; negative
same,mutagenic call,"Test System: AMES SALMONELLA TYPHIMURIUM, Strain/Indicator: TA100, Metabolic Activation: RAT, LIVER, S-9, PHENOBARBITAL, Method: STANDARD PLATE",inactive; negative
same,mutagenic call,[3],active; positive
same,mutagenic call,"Test System: AMES SALMONELLA TYPHIMURIUM, Strain/Indicator: TA1537, Metabolic Activation: RAT, LIVER, S-9, PHENOBARBITAL, Method: STANDARD PLATE",active; positive
same,mutagenic call,[4],active; positive
same,mutagenic call,"Test System: AMES SALMONELLA TYPHIMURIUM, Strain/Indicator: TA1538, Metabolic Activation: RAT, LIVER, S-9, PHENOBARBITAL, Method: STANDARD PLATE",active; positive
